Patent US10675360B2 (MADRIGAL PHARMACEUTICALS, INC., priority 2014, dated 2020)
Values belong to the molecule of their own block, whether it stands above or below them.

What was measured:
Hsp90α = biological target: T1, Hsp90α (Homo sapiens, UniProt P07900); experiment: Hsp90α binding assay (fluorescence polarization, FITC-labeled geldanamycin)
T1 construct: purchased BPS Bioscience 50294
Experimental: An Hsp90^α fluorescence assay kit from BPS Bioscience (Cat #50294) containing Hsp90 recombinant enzyme, FITC-labeled geldanamycin, assay buffer and a low binding 384-well plate was used to assay Hsp90^α binding. Dithiothreitol (DTT) (Cat # D0643) and bovine serum albumin (BSA) (Cat # A2153) were obtained from Sigma-Aldrich. Fluorescence polarization was measured using a PHERAstar microplate reader (BMG LABTECH GmbH, Ortenberg, Germany.)
The compounds were diluted to 1 mM in DMSO and loaded into a compound dilution plate to make 3-fold dilutions yielding a total of 8 concentrations. 1 μL of compound was transferred from the dilution plate to the low binding assay plate provided in the assay kit. 5 mL of Hsp90^α binding solution was prepared having a final concentration of 7 ng/μL Hsp90^α, 5 nM FITC-labeled geldanamycin, 2 mM DTT and 0.1 mg/mL BSA. 49 μL of binding solution was added to each microplate well, incubated at room temperature for 1 hour, then read using the PHERAstar microplate reader. The high control sample contained no compound plus Hsp90^α; the low control sample contained no compound and no Hsp90^α. […] The IC50 was calculated using GraphPad Prism 4 software.

[1] = Stability in mouse plasma; type: in vitro ADME; conditions: for % Remaining: 1 h; for Mouse (10 μM) % Remaining 1 h (37° C.) §: § not explained
[2] = Tissue distribution of SDC-TRAPs in tumor-bearing mice (plasma, tumor, heart); conditions: mouse, in vivo
[3] = tested on: MCF-7 breast cancer cells; experiment: Mouse xenograft efficacy in an MCF-7 breast cancer model; type: in vivo; conditions: FIG. 8
Experimental: MCF-7 breast cancer cells were purchased from ATCC. […] Fetal bovine serum was then added to the medium. The final concentration of fetal bovine serum was 10%. Cells were cultured at 37° C. and 5% CO2.
Mice that were not put on treatment were euthanized. Animals were sourced through CRL (Wilmington, Mass.).

[4] = Stability in cell culture media; conditions: § not explained
H 3211 NSLC cells = experiment: IC50 of continuous and pulsed exposure to SDC-TRAPs; type: cell-based; conditions: 72 h, read-out: IC50, 72 h-continuous, H 3211 NSLC cells, 7.5 × 10^3 cells/well; 1st of 3 columns
[5] = Tissue distribution of ganetespib in female CD-1 nu/nu mice bearing RERF human NSCLC xenografts; type: in vivo, mouse; conditions: ganetespib 50 mg/kg IV
Experimental: To confirm the distribution of ganetespib in blood, livers, kidneys, brains, hearts, lungs and tumors after IV administration of ganetespib to female CD-1 nu/nu mice bearing RERF human NSCLC xenografts, and to examine metabolic profiles of ganetespib in plasma, red blood cells, and above tissues.
Animals: female CD-1 nu/nu mice bearing RERF human NSCLC xenografts (N=3/group)
Formulation: 10% DMSO, 18% Cremophor RH40, 3.6% dextrose solution (DRD)
Bleeding time points: 5 min, 6, 24 hr
Collected tissues: blood (plasma and red blood cells (RBC)), liver, kidneys, brain, heart, lung, tumor
Protein precipitation: 50 μL of 10 times diluted plasma or RBC+150 μL ACN (10 mM NH4OAc), vortexed and centrifuged at 10000 rpm for 8 min; 150 μL supernatant+150 μL water (10 mM NH4OAc)
Protein precipitation: 100 μL homogenized tissue (1:3 tissue: PBS buffer)+100 μL ACN (10 mM NH4OAc), vortexed and centrifuged at 10000 rpm for 8 min

[6] = Artificial membrane permeability assay (PAMPA); type: in vitro ADME; conditions: 5 h incubation, first table

Compound: CCc1c2c(nc3ccc(OC(=O)N(C)CCOCCn4ccc5cc(-n6c(O)nnc6-c6cc(C(C)C)c(O)cc6O)ccc54)cc13)-c1cc3c(c(=O)n1C2)COC(=O)C3(O)CC (centres unmarked) [SDC-TRAP-0029, 4,11-diethyl-4-hydroxy-3,14-dioxo-3,4,12,14-tetrahydro-1H-pyrano[3′,4′:6,7]indolizino[1,2-b]quinolin-9-yl (2-(2-(5-(3-(2,4-dihydroxy-5-isopropylphenyl)-5-hydroxy-4H-1,2,4-triazol-4-yl)-1H-indol-1-yl)ethoxy)ethyl)(methyl)carbamate]
Media (5 μM) % Remaining 1 h (37° C.) § [4]: 43%
Mouse (10 μM) % Remaining 1 h (37° C.) § ([1]; mouse plasma, 10 μM): 44%
% Remaining ([1]; mouse plasma, 37° C.): 47%
IC50 (H 3211 NSLC cells): 79 nM

Compound: CCc1c2c(nc3ccc(OC(=O)N(C)C4CCN(C(=O)CCn5ccc6cc(-n7c(O)nnc7-c7cc(C(C)C)c(O)cc7O)ccc65)CC4)cc13)-c1cc3c(c(=O)n1C2)COC(=O)C3(O)CC (centres unmarked) [SDC-TRAP-0184, 4,11-diethyl-4-hydroxy-3,14-dioxo-3,4,12,14-tetrahydro-1H-pyrano[3′,4′:6,7]indolizino[1,2-b]quinolin-9-yl (1-(3-(5-(3-(2,4-dihydroxy-5-isopropylphenyl)-5-hydroxy-4H-1,2,4-triazol-4-yl)-1H-indol-1-yl)propanoyl)piperidin-4-yl)(methyl)carbamate]
EC50 (Hsp90α): 86.6 nM
% Remaining ([1]; mouse plasma, 37° C.): 18.0%

Compound: CCc1c2c(nc3ccc(OC(=O)N4CCN(c5ccc(-n6c(O)nnc6-c6cc(C(C)C)c(O)cc6O)cc5)CC4)cc13)-c1cc3c(c(=O)n1C2)COC(=O)C3(O)CC (centres unmarked) [SDC-TRAP-0045, 4,11-diethyl-4-hydroxy-3,14-dioxo-3,4,12,14-tetrahydro-1H-pyrano[3′,4′:6,7]indolizino[1,2-b]quinolin-9-yl 4-(4-(3-(2,4-dihydroxy-5-isopropylphenyl)-5-hydroxy-4H-1,2,4-triazol-4-yl)phenyl)piperazine-1-carboxylate]
Media (5 μM) % Remaining 1 h (37° C.) § [4]: 72%
Mouse (10 μM) % Remaining 1 h (37° C.) § ([1]; mouse plasma, 10 μM): 34%
% Remaining ([1]; mouse plasma, 37° C.): 45%

Compound: CCc1c2c(nc3ccc(OC(=O)N4CCN(Cc5ccc(-n6c(O)nnc6-c6cc(C(C)C)c(O)cc6O)cc5)CC4)cc13)-c1cc3c(c(=O)n1C2)COC(=O)C3(O)CC (centres unmarked) [SDC-TRAP-0046, 4,11-diethyl-4-hydroxy-3,14-dioxo-3,4,12,14-tetrahydro-1H-pyrano[3′,4′:6,7]indolizino[1,2-b]quinolin-9-yl 4-(4-(3-(2,4-dihydroxy-5-isopropylphenyl)-5-hydroxy-4H-1,2,4-triazol-4-yl)benzyl)piperazine-1-carboxylate]
Media (5 μM) % Remaining 1 h (37° C.) § [4]: 62%
Mouse (10 μM) % Remaining 1 h (37° C.) § ([1]; mouse plasma, 10 μM): 50%
% Remaining ([1]; mouse plasma, 37° C.): 52%

Compound: CC(C)c1cc(-c2n[nH]c(=O)n2-c2ccc3c(ccn3C)c2)c(O)cc1O [ganetespib]
Concentration in tumor ([5]; 5 min): 2350 nM
Concentration in plasma ([5]; 24 hr): <LLOQ
Persistence in tumor versus plasma and other tissues ([5]; up to 24 hr): persist longer in tumor than in plasma or any other tissues studied

The next lines start with results.

EC50 (Hsp90α): 158 nM
% Remaining ([1]; mouse, plasma, 10 μM): 11.1%
Compound: CCc1c2c(nc3ccc(OC(=O)N4CCC(CCn5ccc6cc(-n7c(O)nnc7-c7cc(C(C)C)c(O)cc7O)ccc65)CC4)cc13)-c1cc3c(c(=O)n1C2)COC(=O)[C@]3(O)CC [SDC-TRAP-0063, 4,11-diethyl-4-hydroxy-3,14-dioxo-3,4,12,14-tetrahydro-1H-pyrano[3′,4′:6,7]indolizino[1,2-b]quinolin-9-yl 4-(2-(5-(3-(2,4-dihydroxy-5-isopropylphenyl)-5-hydroxy-4H-1,2,4-triazol-4-yl)-1H-indol-1-yl)ethyl)piperidine-1-carboxylate]
Selective targeting of tumor [2]: selectively targets and accumulates in tumor cells
Suppression of increase in tumor volume, higher versus lower dose ([3]; 150 mg/kg/1×wk compared to 100 mg/kg/1×wk): appears to prolong the suppression of increase in tumor volume compared to a lower dose
Tumor growth suppression versus irinotecan alone or ganetespib plus irinotecan ([3]; 150 or 100 mg/kg/1×wk): greater tumor growth suppression than effector moiety irinotecan alone

% Remaining ([1]; mouse, plasma, 10 μM): 91.1%
Kp at 48 h [2]: 4.65
Compound: CC(C)c1cc(-c2nnc(O)n2-c2ccc(CC3CCN(CC(=O)Nc4cccc5c4CN(C4CCC(=O)NC4=O)C5=O)CC3)cc2)c(O)cc1O (centres unmarked) [SDC-TRAP-0116, 2-(4-(4-(3-(2,4-dihydroxy-5-isopropylphenyl)-5-hydroxy-4H-1,2,4-triazol-4-yl)benzyl)piperidin-1-yl)-N-(2-(2,6-dioxopiperidin-3-yl)-1-oxoisoindolin-4-yl) acetamide]

Papp at 5 h [6]: 0.0123 ×10⁻⁶ cm/s
Compound: CC(C)c1cc(-c2nnc(O)n2-c2ccc3c(ccn3CCNC(=O)CCCCCNC(=O)CCCC[C@H]3SCC4NC(=O)NC43)c2)c(O)cc1O (stereo in doubt) [SDC-TRAP-0234, N-(2-(5-(3-(2,4-dihydroxy-5-isopropylphenyl)-5-hydroxy-4H-1,2,4-triazol-4-yl)-1H-indol-1-yl)ethyl)-6-(5-((3aR,4R,6aS)-2-oxohexahydro-1H-thieno[3,4-d]imidazol-4-yl)pentanamido)hexanamide]
